Data taken from patent US4039663A, “Daunomycins, process for their uses and intermediates” (Societa' Farmaceutici Italia S.p.A., priority 1975, dated 1977).
Values after ≈ are worked out from the molar mass of the structure shown. Where two headings read alike, the source gives them in different places.

How the values were obtained:
[1] = test system: ASCITES SARCOMA 180; test: Action on ascites sarcoma 180 in mice; format: in vivo, mice (Swiss CD 1); details: for Average Survival Time (%): 1 day after inoculation, untreated = 100%
Description: The tests were carried out on groups of 10 female mice (Swiss CD 1). The compounds under examination were administered intraperitoneally in varying doses to the test animals 1 day after intraperitoneal inoculation with 1 × 10^6 tumor cells per animal. The average survival time is given in Table 1 as a percentage of the survival time of untreated animals, which is arbitrarily designated as 100%. Also given in Table 1 are the number of long term survivors.

[2] = test system: TR[…] LEUKEMIA; test: Transplanted Gross leukemia in mice; format: in vivo, Inbred C3 H female mice; details: first to fifth day, control = 100
Source text: Inbred C3 H female mice were intravenously inoculated with a suspension of leukemia lymphonodes and spleen cells (2.5 × 10^6 leukemia cells/mouse) and treated, intravenously, from the first to the fifth day after inoculation with the compounds under examination.

[3] = test system: Moloney Sarcoma Virus; test: Foci formation by Moloney Sarcoma Virus in mouse embryo fibroblast cultures; format: cell-based; details: for activity at 0.0062 µg/mL / activity at 0.025 µg/mL / activity at 0.1 µg/mL / activity at 0.4 µg/mL / IC50: Fibroblast, 72 h, 3 days treatment; for activity at 0.0062 µg/mL: 0.0062 μg/ml; for activity at 0.0062 µg/mL / activity at 0.025 µg/mL / activity at 0.1 µg/mL / activity at 0.4 µg/mL: read-out: Foci Formation (% of controls); for activity at 0.025 µg/mL: 0.025 μg/ml; for activity at 0.1 µg/mL: 0.1 μg/ml; for activity at 0.4 µg/mL: 0.4 μg/ml; for IC50: read-out: Foci Formation ID50 (A); for B/A: ratio ID50 cell proliferation (B) / ID50 foci formation (A), 4320 min
Description: (§1) The test compounds were evaluated on mouse embryo fibroblast cultures infected with MSV. After a treatment of three days, the inhibiting doses (ID50) were evaluated on cell proliferation and on MSV foci formation.
(§2) Effect of compounds (VI and (VII) on foci formation and on cell proliferation in cultured mice fibroblasts infected with Moloney Sarcoma Virus. (3 days treatment)

[4] = Cell proliferation in cultured mice fibroblasts infected with Moloney Sarcoma Virus; format: cell-based, mouse; details: mouse, embryo fibroblasts; 3 days treatment; read-out: Cell Proliferation ID50 (B)
Description: as §1, §2

[5] = test system: mouse embryo fibroblast cultures infected with MSV; test: as above; format: cell-based; details: Mus musculus, Fibroblast, 72 h, 3 days treatment, read-out: Cell Proliferation (% of controls); for activity at 0.0062 µg/mL: 0.0062 μg/ml; for activity at 0.025 µg/mL: 0.025 μg/ml; for activity at 0.1 µg/mL: 0.1 μg/ml; for activity at 0.4 µg/mL: 0.4 μg/ml
Description: as §1, §2

[6] = test system: HeLa cells; test: Micotic index of cultured HeLa cells at different exposure times; format: cell-based; details: Homo sapiens; for activity at 0.025 µg/mL: 0.025 μg/ml; for activity at 0.05 µg/mL: 0.05 μg/ml; for activity at 0.1 µg/mL: 0.1 μg/ml; for activity at 0.25 µg/mL: 0.25 μg/ml; for activity at 0.5 µg/mL: 0.5 μg/ml; for activity at 1 µg/mL: 1 μg/ml
Source text: (§3) Tests in vitro on the effect of compounds (VI) and (VII) on the micotic index and the proliferative activity of cultured HeLa cells at different exposure times. The results in Table 4 are expressed as a percent of the untreated controls. The ID50 represents the dose which gives a 50% inhibition of colonies.

[7] = test system: HeLa cells; test: Proliferative activity (colony counts) of cultured HeLa cells at different exposure times; format: cell-based; details: Homo sapiens; for activity at 0.025 µg/mL: 0.025 μg/ml; for activity at 0.05 µg/mL: 0.05 μg/ml; for activity at 0.1 µg/mL: 0.1 μg/ml; for IC50: read-out: ID50 (50% inhibition of colonies); for activity at 0.25 µg/mL: 0.25 μg/ml; for activity at 0.5 µg/mL: 0.5 μg/ml; for activity at 1 µg/mL: 1 μg/ml
Source text: as §3

[8] = test system: single myocardial cells isolated from the hearts of newborn mice
Description: The cardiotoxic activity of compound (VI) was evaluated in vitro on single myocardial cells isolated by trypsinization from the hearts of newborn mice (Necco A., Dasdia T. IRCS, 2: 1293, 1974). After 3-4 days, the cell cultures, showing clusters of beating cells, are studied both as to frequency and rhythym.

[9] = test system: a number of experimental tumors; test: Antitumor activity on experimental tumors in mice (summary); format: in vivo; details: mean survival time, non-toxic doses
Description: (§4) The antitumor activity of the novel antibiotic compounds of the invention, i.e., 4'-epi-daunomycin (VI) and 4'-epidaunomycin, β-anomer, (VII) was evaluated on several transplanted tumors in mice, and in in vitro tests, in comparison with the known antitumor agent daunomycin (IV).

[10] = test system: cultured cells; test: Inhibition of cell mitosis and proliferation in cultured cells (summary); format: cell-based; details: cultured cells in vitro
Description: as §4

[11] = test system: oncogenic viruses; test: Cell transformation induced by oncogenic viruses (summary); format: cell-based
Description: as §4

[12] = 2h, value marked * Metaphasic block

COc1cccc2c1C(=O)c1c(O)c3c(c(O)c1C2=O)C[C@@](O)(C(C)=O)C[C@@H]3O[C@H]1C[C@H](N)[C@@H](O)[C@H](C)O1 [VI, 7-0-(3'-amino-2',3',6'-trideoxy-α-L-arabinohexopyranosyl)-daunomycinone]
Long Term Survivors after 60 days ([1]; 0.22 mg/kg i.p.): 1/10
Average Survival Time (%) ([1]; 0.22 mg/kg i.p.): 111.1%
Long Term Survivors after 60 days ([1]; 1.1 mg/kg i.p.): 1/10
Average Survival Time (%) ([1]; 1.1 mg/kg i.p.): 120.8%
Long Term Survivors after 60 days ([1]; 5.7 mg/kg i.p.): 0/10
Average Survival Time (%) ([1]; 5.7 mg/kg i.p.): 174.5%
Average Survival Time (%) ([2]; 1.5 mg/kg daily i.v.): 115%
Average Survival Time (%) ([2]; 2.25 mg/kg daily i.v.): 143%
Average Survival Time (%) ([2]; 3 mg/kg daily i.v.): 162%
Average Survival Time (%) ([2]; 3.75 mg/kg daily i.v.): 122%
Average Survival Time (%) ([2]; 4.5 mg/kg daily i.v.): 120%
activity at 0.0062 µg/mL [3]: 51%
activity at 0.025 µg/mL [3]: 0%
activity at 0.1 µg/mL [3]: 0%
activity at 0.4 µg/mL [3]: 0%
IC50 [3]: 0.006 µg/mL (≈ 0.0114 µM)
B/A [3]: 2.1
CC50 at 72 h [4]: 0.013 µg/mL (≈ 0.0246 µM)
activity at 0.0062 µg/mL [5]: 75%
activity at 0.025 µg/mL [5]: 23%
activity at 0.1 µg/mL [5]: 14%
activity at 0.4 µg/mL [5]: 1%
activity at 0.025 µg/mL [6, 12]: 226%
activity at 0.025 µg/mL ([6]; 4h): 100%
activity at 0.025 µg/mL ([6]; 8h): 117%
activity at 0.05 µg/mL [6, 12]: 189%
activity at 0.05 µg/mL ([6]; 4h): 103%
activity at 0.05 µg/mL ([6]; 8h): 122%
activity at 0.1 µg/mL ([6]; 2h): 79%
activity at 0.1 µg/mL ([6]; 4h): 140%
activity at 0.1 µg/mL ([6]; 8h): 0%
activity at 0.025 µg/mL ([7]; 2h): 113%
activity at 0.025 µg/mL ([7]; 8h): 88%
activity at 0.025 µg/mL ([7]; 24h): 48%
activity at 0.05 µg/mL ([7]; 2h): 115%
activity at 0.05 µg/mL ([7]; 8h): 56%
activity at 0.05 µg/mL ([7]; 24h): 23%
activity at 0.1 µg/mL ([7]; 2h): 77%
activity at 0.1 µg/mL ([7]; 8h): 23%
activity at 0.1 µg/mL ([7]; 24h): 3%
IC50 ([7]; 2h exposure): 0.16 µg/mL (≈ 0.303 µM)
IC50 ([7]; 8h exposure): 0.056 µg/mL (≈ 0.106 µM)
IC50 ([7]; 24h exposure): 0.027 µg/mL (≈ 0.0512 µM)
cardiotoxic activity [8]: lower than that of daunomycin (IV)
antitumor activity in mice [9]: increase in the mean survival time at non-toxic doses
inhibition of cell mitosis and proliferative activity [10]: powerful inhibitors of cell mitosis and proliferative activity in cultured cells in vitro
activity on cell transformation induced by oncogenic viruses [11]: substantial activity on cell transformation induced by oncogenic viruses

COc1cccc2c1C(=O)c1c(O)c3c(c(O)c1C2=O)C[C@@](O)(C(C)=O)C[C@@H]3O[C@H]1C[C@H](N)[C@H](O)[C@H](C)O1 [IV, 7-O-(3'-amino-2',3',6'-trideoxy-α-L-lyxohexopyranosyl)-daunomycin-one, reference compound]
IC50 [3]: 0.006 µg/mL (≈ 0.0114 µM)
B/A [3]: 1.4
CC50 at 72 h [4]: 0.0086 µg/mL (≈ 0.0163 µM)
IC50 ([7]; 2h exposure): 0.098 µg/mL (≈ 0.186 µM)
IC50 ([7]; 8h exposure): 0.036 µg/mL (≈ 0.0682 µM)
IC50 ([7]; 24h exposure): 0.021 µg/mL (≈ 0.0398 µM)

COc1cccc2c1C(=O)c1c(O)c3c(c(O)c1C2=O)C[C@@](O)(C(C)=O)C[C@@H]3O[C@@H]1C[C@H](N)[C@@H](O)[C@H](C)O1 [VII, 7-O-(3'-amino-2',3',6'-trideoxy-β-L-arabinohexopyranosyl)-daunomycinone]
Long Term Survivors after 60 days ([1]; 0.26 mg/kg i.p.): 0/10
Average Survival Time (%) ([1]; 0.26 mg/kg i.p.): 96.6%
Long Term Survivors after 60 days ([1]; 1.3 mg/kg i.p.): 1/10
Average Survival Time (%) ([1]; 1.3 mg/kg i.p.): 114.8%
Long Term Survivors after 60 days ([1]; 6.7 mg/kg i.p.): 1/10
Average Survival Time (%) ([1]; 6.7 mg/kg i.p.): 118.6%
Average Survival Time (%) ([2]; 1.5 mg/kg daily i.v.): 106%
Average Survival Time (%) ([2]; 2.25 mg/kg daily i.v.): 102%
Average Survival Time (%) ([2]; 3 mg/kg daily i.v.): 121%
activity at 0.0062 µg/mL [3]: 48%
activity at 0.025 µg/mL [3]: 44%
activity at 0.1 µg/mL [3]: 5%
activity at 0.4 µg/mL [3]: 0%
IC50 [3]: 0.01 µg/mL (≈ 0.019 µM)
B/A [3]: 6.4
CC50 at 72 h [4]: 0.064 µg/mL (≈ 0.121 µM)
activity at 0.0062 µg/mL [5]: 87%
activity at 0.025 µg/mL [5]: 80%
activity at 0.1 µg/mL [5]: 28%
activity at 0.4 µg/mL [5]: 14%
activity at 0.25 µg/mL ([6]; 2h): 137%
activity at 0.25 µg/mL ([6]; 4h): 103%
activity at 0.25 µg/mL ([6]; 8h): 85%
activity at 0.5 µg/mL ([6]; 2h): 95%
activity at 0.5 µg/mL ([6]; 4h): 67%
activity at 0.5 µg/mL ([6]; 8h): 88%
activity at 1 µg/mL ([6]; 2h): 52%
activity at 1 µg/mL ([6]; 4h): 40%
activity at 1 µg/mL ([6]; 8h): 0%
activity at 0.25 µg/mL ([7]; 2h): 108%
activity at 0.25 µg/mL ([7]; 8h): 86%
activity at 0.25 µg/mL ([7]; 24h): 70%
activity at 0.5 µg/mL ([7]; 2h): 101%
activity at 0.5 µg/mL ([7]; 8h): 37%
activity at 0.5 µg/mL ([7]; 24h): 18%
activity at 1 µg/mL ([7]; 2h): 98%
activity at 1 µg/mL ([7]; 8h): 17%
activity at 1 µg/mL ([7]; 24h): 6%
IC50 ([7]; 2h exposure): > 1 µg/mL
IC50 ([7]; 8h exposure): 0.47 µg/mL (≈ 0.891 µM)
IC50 ([7]; 24h exposure): 0.33 µg/mL (≈ 0.626 µM)
antitumor activity in mice [9]: increase in the mean survival time at non-toxic doses
inhibition of cell mitosis and proliferative activity [10]: powerful inhibitors of cell mitosis and proliferative activity in cultured cells in vitro
activity on cell transformation induced by oncogenic viruses [11]: substantial activity on cell transformation induced by oncogenic viruses
